Data on one molecule can be found in patent publication US8314092B2, “Substituted [(5H-pyrrolo[2,1-c][1,4]benzodiazepin-11-yl)piperazin-1-yl]-2,2-dimethylpropanoic acid compounds as dual activity H1 inverse agonists/5-HT2A antagonists” (Eli Lilly and Company, priority 2011, dated 2012).

In test [1] the test system is native GABAA receptors. Description: GABAA antagonism using native receptors in primary neuronal cultures (FLIPR calcium flux). Particulars: against 10 μM GABA. It counts as cell-based, rat. As for the experimental part: Activity of compounds on native GABAA receptors is evaluated by monitoring calcium fluxes using a 96 well format FLIPR® system (Fluorometric Imaging Plate Reader (FLIPR®, Molecular Devices). Briefly, cortical embryonic neurons are dissociated from E18 rat embryos and plated at optimum density into black-walled, transparent bottom poly-D-lysine coated 96-well FLIPR® plates. After loading the cells with a calcium sensitive dye (Fluo-4-AM, Molecular Devices), the cells are bathed in a solution containing low chloride (chloride replaced by gluconate). Under these conditions activation of GABAA receptors causes an efflux of chloride ions (in the direction of the chemical gradient), which results in membrane depolarization and consequently activation of voltage gated calcium channels (VGCCs). Calcium influx through VGCCs is recorded and analysed offline using the FLIPR® system. For a pharmacological validation of the assay, concentration response curves (CRC) are recorded for the standard agonist (GABA) and standard antagonist (Gabazine). […]
The antagonist effects of compounds are quantified using 10-point dose response curves by comparing the peak fluorescent responses to the agonist GABA in the presence and absence of compound. […] Antagonist effects are calculated as a percent of the assay window. […]
In general terms: Calcium flux is commonly read through the fluorescence of an indicator in the cells.

Test [2] concerns the target 5-HT2B receptors (Homo sapiens, UniProt P41595). Briefly: 5-HT2B agonist functional activity assay. In kind it is cell-based. From the text: (§1) Further, the compounds of the invention may be tested in binding assays and functional activity assays by well known methods for other physiologically important receptors such as, but not limited to, the hERG channel, other serotonin receptors (specifically 5-HT1A, 5-HT1B, 5-HT1D, 5-HT1E, 5-HT1F receptors, lack of agonist activity at 5-HT2B receptors, 5-HT2C, 5-HT4, 5-HTS, 5-HT6, and 5-HT7 receptors), muscarinic receptors, dopaminergic receptors (specifically D1, D2, and D3), GABAA receptors, adrenergic receptors and monoamine transporters. Certain exemplified compounds are tested at these receptors and are shown to lack significant activity.

The target in test [3] is Dopamine D1 (Homo sapiens, UniProt P21728). Description: Dopamine D1 binding.
Description: as §1

Test [4] has as its target 5-HT1D (Homo sapiens, UniProt P28221). Briefly: 5-HT1D binding.
Description: as §1

The target of test [5] is 5-HT1E (Homo sapiens, UniProt P28566). Briefly: 5-HT1E binding.
Description: as §1

The target in test [6] is 5-HT1F (Homo sapiens, UniProt P30939). Description: 5-HT1F binding.
Description: as §1

Test [7] deals with Adrenergic alpha2A (Homo sapiens, UniProt P08913). Description: Adrenergic alpha2A binding.
Description: as §1

The target in test [8] is Adrenergic alpha2C (Homo sapiens, UniProt P18825). Briefly: Adrenergic alpha2C binding.
Description: as §1

The target of test [9] is Serotonin Transporter (Homo sapiens, UniProt P31645). Briefly: Serotonin transporter assay. Particulars: dihydrochloride. It counts as binding.
Description: as §1

Test [10] has as its target Norepinephrine Transport (Homo sapiens, UniProt P23975). Briefly: Norepinephrine transporter assay. Particulars: dihydrochloride. In kind it is binding.
Description: as §1

For test [11], the target named is Dopamine Transporter (Homo sapiens, UniProt Q01959). Description: Dopamine transporter assay. In kind it is binding. Particulars: dihydrochloride.
Description: as §1

The target of test [12] is T1, 5-HT2A receptor (Mus musculus, UniProt P35363).
T1 construct: male C57BL/6J mice (20-25 g, Charles River); from tissue; host or cells: living C57BL/6J mouse (whole animal, behavioural read-out)
Description: Inhibition of DOI induced headshake activity. In kind it is in vivo. Particulars: mice, 10 mg/kg PO, 60 minutes pre-treatment, DOI 3 mg/kg. Here is the method:
(see for example Bartoszyk G D, van Amsterdam C, Böttcher H, Seyfried C A. EMD 281014, a new selective serotonin 5-HT2A receptor antagonist. Eur J Pharmacol. 2003 473: 229-230.) Briefly, male C57BL/6J mice (20-25 g, Charles River) are housed in standard housing conditions (32 mice in a large IVC cage, 07.00 to 19.00 light phase, constant temperature (19-23° C.) and humidity (50%+/−10), ad lib food and water). Mice received either vehicle (0.25% Methyl cellulose), DOI (3 mg/kg in saline) or test compound at 10 mg/kg PO plus DOI (3 mg/kg in saline). Test compounds are individually evaluated in groups of four per experiment with n=4 for each compound, together with vehicle and DOI+vehicle (n=8). After a test compound pre-treatment time of 60 minutes the mice receive either vehicle (saline) or 3 mg/kg DOI dosed subcutaneously, and are then placed into clear perspex observation chambers. […] The data is analyzed using an ANOVA and post-hoc Dunnet's Test. Exemplified compounds are tested essentially as described and are found to inhibit the DOI induced headshake response at greater than 90% at 10 mg/kg. The compound of example 13 is tested essentially as described and is found to inhibit the DOI induced headshake response at 100% at 10 mg/kg.

Test [13] concerns the target human recombinant H1 receptor (Homo sapiens, UniProt P35367). Briefly: H1 competition binding assay ([3H]-Pyrilamine SPA). Also noted: expressed in transfected cells. As for the experimental part: [^3H]-Pyrilamine binding experiments are carried out in SPA (scintillation proximity assay) 96-well format. Membranes used in this assay are prepared from HEK-293 cells stably expressing recombinant H1 receptor (human). The incubation is initiated by the addition of a mixture of WGA PVT SPA beads (1 mg/well, Perkin Elmer (MA, USA) RPNQ0001) and 3 μg membranes to assay buffer (67 mM Tris; pH 7.6) containing 3.5 nM [^3H]-Pyrilamine and varying concentrations of the test compound (10 point concentration response curves). Non-specific binding is determined in the presence of 10 μM Triprolidine. Samples are incubated for four hours at room temperature (22° C.) and then read in a Microbeta Trilux.
Curves are evaluated using a 4-parameter logistic nonlinear equation to obtain the concentration of competitor causing 50% inhibition of radioligand binding (IC50). Equilibrium dissociation constants (Ki) are calculated according to the equation Ki=IC50/(1+L/Kd), where L equals the concentration of radioligand used in the experiment and Kd equals the equilibrium dissociation constant of the radioligand for the receptor, determined from standard saturation analysis or homologous competition experiments. Reported values for Ki, where n values are indicated, are shown as geometric mean±the standard error of the mean (SEM), with the number of replicate determinations indicated by n. […]

Each structure is given as a SMILES string. Where a name gives a salt, the structure may show the parent alone.

Sequence of human recombinant H1 receptor (P35367 whole entry): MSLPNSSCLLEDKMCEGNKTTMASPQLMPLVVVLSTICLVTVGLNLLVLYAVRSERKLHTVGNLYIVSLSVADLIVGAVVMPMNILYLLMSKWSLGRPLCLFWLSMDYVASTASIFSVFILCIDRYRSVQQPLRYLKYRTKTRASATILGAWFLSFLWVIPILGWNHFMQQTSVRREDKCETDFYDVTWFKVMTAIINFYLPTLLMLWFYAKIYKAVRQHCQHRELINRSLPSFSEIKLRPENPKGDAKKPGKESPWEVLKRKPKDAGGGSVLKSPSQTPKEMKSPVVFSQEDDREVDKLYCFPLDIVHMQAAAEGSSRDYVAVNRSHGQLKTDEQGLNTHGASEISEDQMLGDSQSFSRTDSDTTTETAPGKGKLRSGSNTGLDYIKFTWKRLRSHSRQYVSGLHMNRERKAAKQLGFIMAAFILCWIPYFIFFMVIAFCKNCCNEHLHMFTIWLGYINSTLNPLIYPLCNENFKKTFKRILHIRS
Sequence of 5-HT1F (P30939 whole entry, species assumed): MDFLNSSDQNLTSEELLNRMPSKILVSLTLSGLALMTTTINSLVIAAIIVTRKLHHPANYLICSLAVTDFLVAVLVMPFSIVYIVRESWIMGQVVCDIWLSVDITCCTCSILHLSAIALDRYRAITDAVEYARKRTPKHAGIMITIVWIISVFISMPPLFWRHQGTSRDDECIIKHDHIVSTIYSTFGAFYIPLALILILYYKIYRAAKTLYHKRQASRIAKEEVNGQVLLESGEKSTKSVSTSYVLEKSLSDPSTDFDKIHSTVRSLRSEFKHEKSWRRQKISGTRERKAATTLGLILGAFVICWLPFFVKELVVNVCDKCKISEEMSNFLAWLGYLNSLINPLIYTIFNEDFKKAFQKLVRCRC
Sequence of Dopamine D1 (P21728 whole entry): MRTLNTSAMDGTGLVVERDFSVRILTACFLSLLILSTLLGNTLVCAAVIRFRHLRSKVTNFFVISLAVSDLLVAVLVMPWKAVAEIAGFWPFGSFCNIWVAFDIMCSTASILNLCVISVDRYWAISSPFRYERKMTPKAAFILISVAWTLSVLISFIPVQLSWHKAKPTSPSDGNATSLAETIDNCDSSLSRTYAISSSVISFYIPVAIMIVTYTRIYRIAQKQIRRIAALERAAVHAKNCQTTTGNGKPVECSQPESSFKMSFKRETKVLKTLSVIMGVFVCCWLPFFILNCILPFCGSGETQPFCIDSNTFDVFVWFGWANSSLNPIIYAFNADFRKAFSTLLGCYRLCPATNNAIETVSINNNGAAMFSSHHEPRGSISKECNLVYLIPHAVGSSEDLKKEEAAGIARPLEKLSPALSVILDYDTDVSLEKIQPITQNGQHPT
Sequence of 5-HT2B receptors (P41595 whole entry): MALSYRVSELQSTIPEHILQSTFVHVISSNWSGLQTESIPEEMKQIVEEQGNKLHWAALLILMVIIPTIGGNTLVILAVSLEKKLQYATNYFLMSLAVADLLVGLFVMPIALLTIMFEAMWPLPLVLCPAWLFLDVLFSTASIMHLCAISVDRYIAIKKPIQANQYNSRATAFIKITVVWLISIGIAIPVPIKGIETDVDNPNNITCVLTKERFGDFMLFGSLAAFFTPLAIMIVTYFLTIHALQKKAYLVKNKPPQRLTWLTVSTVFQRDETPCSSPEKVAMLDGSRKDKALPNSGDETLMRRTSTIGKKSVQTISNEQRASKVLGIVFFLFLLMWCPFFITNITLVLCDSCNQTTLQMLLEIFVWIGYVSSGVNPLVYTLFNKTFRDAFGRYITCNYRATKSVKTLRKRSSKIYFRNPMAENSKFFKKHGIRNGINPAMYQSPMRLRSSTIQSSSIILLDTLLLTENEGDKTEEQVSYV
Sequence of Norepinephrine Transport (P23975 whole entry): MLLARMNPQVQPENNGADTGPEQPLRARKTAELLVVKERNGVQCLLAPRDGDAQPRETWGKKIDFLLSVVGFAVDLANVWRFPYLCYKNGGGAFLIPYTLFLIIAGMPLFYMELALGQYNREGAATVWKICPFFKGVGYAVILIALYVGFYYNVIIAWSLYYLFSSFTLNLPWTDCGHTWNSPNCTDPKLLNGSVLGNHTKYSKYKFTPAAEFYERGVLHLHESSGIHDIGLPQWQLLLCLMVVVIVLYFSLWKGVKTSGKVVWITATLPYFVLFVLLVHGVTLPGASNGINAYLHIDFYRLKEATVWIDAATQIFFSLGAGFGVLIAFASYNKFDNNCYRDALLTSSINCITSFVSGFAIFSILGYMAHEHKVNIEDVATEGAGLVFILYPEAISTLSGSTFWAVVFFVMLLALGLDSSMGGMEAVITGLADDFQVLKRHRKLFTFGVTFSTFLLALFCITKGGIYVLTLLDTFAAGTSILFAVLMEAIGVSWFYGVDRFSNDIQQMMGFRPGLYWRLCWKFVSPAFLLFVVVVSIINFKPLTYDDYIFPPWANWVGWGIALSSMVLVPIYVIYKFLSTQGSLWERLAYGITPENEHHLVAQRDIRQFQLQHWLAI
Sequence of Adrenergic alpha2C (P18825 whole entry): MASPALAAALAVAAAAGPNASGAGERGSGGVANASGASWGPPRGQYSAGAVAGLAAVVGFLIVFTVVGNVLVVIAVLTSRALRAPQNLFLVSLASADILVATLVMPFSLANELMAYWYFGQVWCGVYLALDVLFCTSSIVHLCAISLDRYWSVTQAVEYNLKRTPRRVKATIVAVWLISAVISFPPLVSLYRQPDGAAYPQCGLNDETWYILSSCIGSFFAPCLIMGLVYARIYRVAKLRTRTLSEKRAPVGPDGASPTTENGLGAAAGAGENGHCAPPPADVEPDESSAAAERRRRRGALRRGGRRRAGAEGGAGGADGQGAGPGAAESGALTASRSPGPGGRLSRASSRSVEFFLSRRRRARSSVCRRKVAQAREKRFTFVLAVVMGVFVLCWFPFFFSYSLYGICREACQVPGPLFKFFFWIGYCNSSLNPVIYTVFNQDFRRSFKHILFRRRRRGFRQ
Sequence of 5-HT1D (P28221 whole entry, species assumed): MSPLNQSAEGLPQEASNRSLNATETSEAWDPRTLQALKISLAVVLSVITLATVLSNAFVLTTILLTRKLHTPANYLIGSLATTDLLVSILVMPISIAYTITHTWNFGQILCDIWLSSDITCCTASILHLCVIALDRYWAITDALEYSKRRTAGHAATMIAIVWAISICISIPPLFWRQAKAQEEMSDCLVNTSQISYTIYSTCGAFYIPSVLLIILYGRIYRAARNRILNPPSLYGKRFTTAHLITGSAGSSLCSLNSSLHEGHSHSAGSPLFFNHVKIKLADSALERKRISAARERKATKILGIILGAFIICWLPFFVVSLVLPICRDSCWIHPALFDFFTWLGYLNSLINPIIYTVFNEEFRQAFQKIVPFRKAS
Sequence of Adrenergic alpha2A (P08913 whole entry): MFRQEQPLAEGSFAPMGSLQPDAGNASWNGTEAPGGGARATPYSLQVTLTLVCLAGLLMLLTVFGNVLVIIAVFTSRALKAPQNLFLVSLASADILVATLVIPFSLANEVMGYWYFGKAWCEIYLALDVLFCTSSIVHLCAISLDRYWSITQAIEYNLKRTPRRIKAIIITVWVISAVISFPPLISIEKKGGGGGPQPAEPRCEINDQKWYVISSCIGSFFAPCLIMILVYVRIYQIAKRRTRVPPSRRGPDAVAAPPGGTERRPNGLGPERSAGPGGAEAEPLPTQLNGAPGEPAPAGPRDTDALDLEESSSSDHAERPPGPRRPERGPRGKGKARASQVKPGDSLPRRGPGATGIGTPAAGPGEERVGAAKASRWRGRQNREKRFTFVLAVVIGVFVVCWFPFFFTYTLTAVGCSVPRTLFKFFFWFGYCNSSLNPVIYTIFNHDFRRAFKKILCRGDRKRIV
T1 sequence (P35363 whole entry): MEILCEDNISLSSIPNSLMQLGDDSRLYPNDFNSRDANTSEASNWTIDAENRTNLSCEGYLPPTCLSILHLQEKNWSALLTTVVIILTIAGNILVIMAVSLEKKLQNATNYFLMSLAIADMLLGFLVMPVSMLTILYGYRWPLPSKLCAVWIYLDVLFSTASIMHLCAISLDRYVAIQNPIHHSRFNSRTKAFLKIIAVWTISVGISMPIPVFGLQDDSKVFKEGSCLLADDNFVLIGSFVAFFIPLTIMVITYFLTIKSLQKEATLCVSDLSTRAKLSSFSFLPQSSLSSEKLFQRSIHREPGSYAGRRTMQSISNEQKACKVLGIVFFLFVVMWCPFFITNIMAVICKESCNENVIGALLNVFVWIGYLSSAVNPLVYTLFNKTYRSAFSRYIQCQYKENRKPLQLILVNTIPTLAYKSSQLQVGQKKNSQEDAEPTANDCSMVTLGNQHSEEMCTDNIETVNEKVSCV
Sequence of 5-HT1E (P28566 whole entry, species assumed): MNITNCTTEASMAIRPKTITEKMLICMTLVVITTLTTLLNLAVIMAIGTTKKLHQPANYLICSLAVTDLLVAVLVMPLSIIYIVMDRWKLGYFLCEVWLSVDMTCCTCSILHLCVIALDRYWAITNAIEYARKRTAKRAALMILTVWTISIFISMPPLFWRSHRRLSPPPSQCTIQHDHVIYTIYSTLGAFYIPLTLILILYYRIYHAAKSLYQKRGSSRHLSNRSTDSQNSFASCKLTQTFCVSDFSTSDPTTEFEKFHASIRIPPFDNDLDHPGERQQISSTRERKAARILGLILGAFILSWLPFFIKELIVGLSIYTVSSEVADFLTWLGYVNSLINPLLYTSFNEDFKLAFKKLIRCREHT

For the molecule `Cc1cc2n(c1)Cc1cc(Cl)ccc1N=C2N1CCN(CC(C)(C)C(=O)O)CC1` [Example 13, 3-[4-(7-Chloro-2-methyl-5H-pyrrolo[2,1-c][1,4]benzodiazepin-11-yl)piperazin-1-yl]-2,2-dimethylpropanoic acid dihydrochloride], in [1], the IC50 – broadly, the concentration at which inhibition is half-maximal – is more than 50 µM. Besides, in test [2], the concentration giving a half-maximal response (EC50) (commonly the concentration that produces a half-maximal response) is more than 10 µM. In addition, the Ki – broadly, a measure of affinity in units of concentration, obtained from inhibition or displacement – in test [3] is 1.86 µM; in test [4], more than 8.55 µM; in [5], more than 5.37 µM; in [6], more than 8.25 µM; in test [7], more than 8.47 µM; in test [8] it was more than 5.33 µM. In test [13], the Ki was 0.0168 µM. The “Serotonin Transporter” value in [9] was more than 515. Further, in test [10], the “Norepinephrine Transport” value was more than 526. In addition, the “Dopamine Transporter” value in [11] was more than 880. The “inhibition of DOI induced headshake response” value in [12] was 100%.
